According to US20240101576A1, “HETEROCYCLIC INHIBITORS OF EGFR AND/OR HER2, FOR USE IN THE TREATMENT OF CANCER” (Scorpion Therapeutics, Inc., priority 2020, published 2024):

Assays:
Assay type in all cases: cell-based
EGFR L858R (Ba/F3 cells) [1] = biological target: T1, EGFR L858R (Ba/F3 cells) (Homo sapiens, UniProt P00533, L858R); test: Inhibitor activity on EGFR-dependent cell growth (CellTiter-Glo, 72 h), Ba/F3 EGFR L858R; conditions: read-out: BaF3 L858R IC50
T1 construct: expressed in transfected cells; host or cells: Ba/F3 (murine pro-B cells), retroviral transduction, puromycin selection, IL3-independent pool
Outline: (§1)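 Compounds, serially diluted 3-fold over 10 points in DMSO and added at 120 nL per well, act on Ba/F3 EGFR-mutant cells for 72 h. Seeding is 800 (exon 19del, FQEA), 600 (L858R/C797S) or 400 (L858R) cells/well. CTG luminescence is fitted with a four-parameter logistic curve to give IC50.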

[2] = biological target: T2, EGFR exon 19del (Ba/F3 cells) (Homo sapiens, UniProt P00533); test: Inhibitor activity on EGFR-dependent cell growth (CellTiter-Glo, 72 h), Ba/F3 EGFR exon 19del; conditions: Ba/F3 EGFR exon 19del cell growth, read-out: BaF3 Del19 IC50
Outline: as §1

[3] = biological target: T3, EGFR L858R/C797S (Ba/F3 cells) (Homo sapiens, UniProt P00533, C797S/L858R); test: Inhibitor activity on EGFR-dependent cell growth (CellTiter-Glo, 72 h), Ba/F3 EGFR L858R/C797S; conditions: read-out: BaF3 L858R/C797S IC50
T3 construct: expressed in transfected cells; host or cells: Ba/F3 (murine pro-B cells), retroviral transduction, puromycin selection, IL3-independent pool
T3 sequence (P00533 25-1210 C797S/L858R): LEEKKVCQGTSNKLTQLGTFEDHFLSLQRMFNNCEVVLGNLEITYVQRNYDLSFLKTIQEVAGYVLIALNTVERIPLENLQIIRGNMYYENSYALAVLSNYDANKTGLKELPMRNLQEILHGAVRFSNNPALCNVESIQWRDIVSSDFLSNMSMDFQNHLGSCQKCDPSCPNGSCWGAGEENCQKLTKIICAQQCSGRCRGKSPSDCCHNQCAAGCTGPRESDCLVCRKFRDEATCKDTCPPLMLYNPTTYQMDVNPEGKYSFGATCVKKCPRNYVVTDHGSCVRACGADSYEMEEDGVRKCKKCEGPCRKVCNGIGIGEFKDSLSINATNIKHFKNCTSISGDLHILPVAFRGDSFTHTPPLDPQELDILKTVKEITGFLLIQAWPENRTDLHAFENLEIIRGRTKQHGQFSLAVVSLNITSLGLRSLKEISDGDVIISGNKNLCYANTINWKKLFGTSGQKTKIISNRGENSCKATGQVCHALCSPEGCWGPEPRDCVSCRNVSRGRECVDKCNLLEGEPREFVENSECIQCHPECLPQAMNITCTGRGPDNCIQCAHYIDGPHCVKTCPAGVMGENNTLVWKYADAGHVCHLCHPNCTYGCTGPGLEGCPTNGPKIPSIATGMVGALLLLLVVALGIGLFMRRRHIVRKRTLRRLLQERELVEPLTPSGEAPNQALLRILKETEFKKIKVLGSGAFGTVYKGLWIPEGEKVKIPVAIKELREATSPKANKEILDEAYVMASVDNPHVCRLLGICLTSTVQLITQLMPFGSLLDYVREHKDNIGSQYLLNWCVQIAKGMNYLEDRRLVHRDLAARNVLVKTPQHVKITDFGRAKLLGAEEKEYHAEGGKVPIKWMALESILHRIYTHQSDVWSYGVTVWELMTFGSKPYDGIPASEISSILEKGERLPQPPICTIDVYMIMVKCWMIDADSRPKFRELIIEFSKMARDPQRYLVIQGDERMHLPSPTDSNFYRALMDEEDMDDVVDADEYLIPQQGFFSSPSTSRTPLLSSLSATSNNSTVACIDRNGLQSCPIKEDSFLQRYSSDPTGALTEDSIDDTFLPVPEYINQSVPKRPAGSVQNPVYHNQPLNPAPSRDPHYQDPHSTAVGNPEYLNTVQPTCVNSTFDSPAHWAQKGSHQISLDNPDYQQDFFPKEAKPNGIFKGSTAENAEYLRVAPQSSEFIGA
Outline: as §1

EGFR L858R (Ba/F3 cells) [4] = biological target: T1, EGFR L858R (Ba/F3 cells); test: Inhibitor activity on EGFR phosphorylation (pEGFR AlphaLISA, 2 h), Ba/F3 EGFR L858R
Outline: (§2)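 IL3-independent Ba/F3 cells transduced with mutant EGFR (50K/well) or CUTO14 cells (12.5K/well) were treated 2 h with 10-point, 3-fold compound dilutions. Phospho-EGFR in lysates was measured by AlphaLISA to derive IC50.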

[5] = biological target: T2, EGFR exon 19del (Ba/F3 cells); test: Inhibitor activity on EGFR phosphorylation (pEGFR AlphaLISA, 2 h), Ba/F3 EGFR exon 19del; conditions: read-out: Del19 IC50 (pEGFR)
Outline: as §2

[6] = biological target: T3, EGFR L858R/C797S (Ba/F3 cells); test: Inhibitor activity on EGFR phosphorylation (pEGFR AlphaLISA, 2 h), Ba/F3 EGFR L858R/C797S
Outline: as §2

EGFR WT (Ba/F3 cells) = biological target: T4, EGFR WT (Ba/F3 cells) (Homo sapiens, UniProt P00533); test: Inhibitor activity on EGFR-dependent cell growth (CellTiter-Glo, 72 h), Ba/F3 EGFR WT; conditions: read-out: BaF3 WT IC50
T4 construct: expressed in transfected cells; host or cells: Ba/F3 (murine pro-B cells), retroviral transduction, puromycin selection, maintained with EGF
T4 sequence (P00533 25-1210): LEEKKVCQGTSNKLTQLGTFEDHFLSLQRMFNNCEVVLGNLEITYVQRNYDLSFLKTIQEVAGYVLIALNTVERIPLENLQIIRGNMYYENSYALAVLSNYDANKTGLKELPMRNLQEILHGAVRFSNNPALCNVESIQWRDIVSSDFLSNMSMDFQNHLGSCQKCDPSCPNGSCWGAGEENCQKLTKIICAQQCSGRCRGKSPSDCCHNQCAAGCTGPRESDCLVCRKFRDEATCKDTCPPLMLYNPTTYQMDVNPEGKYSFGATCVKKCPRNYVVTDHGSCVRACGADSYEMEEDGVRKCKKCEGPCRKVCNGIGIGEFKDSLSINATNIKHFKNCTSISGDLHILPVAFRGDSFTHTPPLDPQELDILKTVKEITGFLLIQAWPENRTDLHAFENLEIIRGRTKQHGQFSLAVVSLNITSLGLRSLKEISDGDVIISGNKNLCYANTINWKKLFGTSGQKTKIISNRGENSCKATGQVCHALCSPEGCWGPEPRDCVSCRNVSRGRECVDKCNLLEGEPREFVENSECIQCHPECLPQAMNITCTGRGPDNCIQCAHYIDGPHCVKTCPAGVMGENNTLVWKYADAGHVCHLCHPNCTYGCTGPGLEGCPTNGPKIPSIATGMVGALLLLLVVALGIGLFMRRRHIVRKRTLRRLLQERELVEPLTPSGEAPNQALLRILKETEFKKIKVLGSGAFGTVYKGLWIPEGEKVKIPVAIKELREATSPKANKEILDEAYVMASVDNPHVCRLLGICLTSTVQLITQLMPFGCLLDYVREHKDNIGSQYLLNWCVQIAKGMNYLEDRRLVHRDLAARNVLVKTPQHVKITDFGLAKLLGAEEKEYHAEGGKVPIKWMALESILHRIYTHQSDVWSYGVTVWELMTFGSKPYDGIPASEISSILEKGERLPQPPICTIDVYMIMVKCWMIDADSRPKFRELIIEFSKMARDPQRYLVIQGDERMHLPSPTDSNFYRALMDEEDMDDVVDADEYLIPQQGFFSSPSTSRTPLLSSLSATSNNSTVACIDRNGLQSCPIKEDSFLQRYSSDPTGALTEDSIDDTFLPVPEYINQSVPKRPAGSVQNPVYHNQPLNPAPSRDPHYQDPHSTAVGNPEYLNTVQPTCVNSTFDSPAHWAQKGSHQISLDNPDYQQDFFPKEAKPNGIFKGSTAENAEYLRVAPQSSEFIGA
Outline: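 This growth assay used Ba/F3 cells that depend on wild-type EGFR and are kept in EGF without IL3. Compounds were made up as 10 mM DMSO stocks and diluted 3-fold over 10 points. 120 nL went onto 600 cells/well. After 72 hours, 40 μL CellTiter-Glo was added and luminescence read on EnVision after 30 min.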

[7] = biological target: T5, EGFR exon 20 NPG Ins D770_N771 (Ba/F3 cells) (Homo sapiens, UniProt P00533, INS770NPG); test: Inhibitor activity on EGFR-dependent cell growth (CellTiter-Glo, 72 h), Ba/F3 EGFR exon 20 NPG Ins; conditions: read-out: BaF3 NPG IC50
T5 construct: expressed in transfected cells; host or cells: Ba/F3 (murine pro-B cells), retroviral transduction, puromycin selection, IL3-independent pool
T5 sequence (P00533 with tags, fused parts or gaps INS770NPG): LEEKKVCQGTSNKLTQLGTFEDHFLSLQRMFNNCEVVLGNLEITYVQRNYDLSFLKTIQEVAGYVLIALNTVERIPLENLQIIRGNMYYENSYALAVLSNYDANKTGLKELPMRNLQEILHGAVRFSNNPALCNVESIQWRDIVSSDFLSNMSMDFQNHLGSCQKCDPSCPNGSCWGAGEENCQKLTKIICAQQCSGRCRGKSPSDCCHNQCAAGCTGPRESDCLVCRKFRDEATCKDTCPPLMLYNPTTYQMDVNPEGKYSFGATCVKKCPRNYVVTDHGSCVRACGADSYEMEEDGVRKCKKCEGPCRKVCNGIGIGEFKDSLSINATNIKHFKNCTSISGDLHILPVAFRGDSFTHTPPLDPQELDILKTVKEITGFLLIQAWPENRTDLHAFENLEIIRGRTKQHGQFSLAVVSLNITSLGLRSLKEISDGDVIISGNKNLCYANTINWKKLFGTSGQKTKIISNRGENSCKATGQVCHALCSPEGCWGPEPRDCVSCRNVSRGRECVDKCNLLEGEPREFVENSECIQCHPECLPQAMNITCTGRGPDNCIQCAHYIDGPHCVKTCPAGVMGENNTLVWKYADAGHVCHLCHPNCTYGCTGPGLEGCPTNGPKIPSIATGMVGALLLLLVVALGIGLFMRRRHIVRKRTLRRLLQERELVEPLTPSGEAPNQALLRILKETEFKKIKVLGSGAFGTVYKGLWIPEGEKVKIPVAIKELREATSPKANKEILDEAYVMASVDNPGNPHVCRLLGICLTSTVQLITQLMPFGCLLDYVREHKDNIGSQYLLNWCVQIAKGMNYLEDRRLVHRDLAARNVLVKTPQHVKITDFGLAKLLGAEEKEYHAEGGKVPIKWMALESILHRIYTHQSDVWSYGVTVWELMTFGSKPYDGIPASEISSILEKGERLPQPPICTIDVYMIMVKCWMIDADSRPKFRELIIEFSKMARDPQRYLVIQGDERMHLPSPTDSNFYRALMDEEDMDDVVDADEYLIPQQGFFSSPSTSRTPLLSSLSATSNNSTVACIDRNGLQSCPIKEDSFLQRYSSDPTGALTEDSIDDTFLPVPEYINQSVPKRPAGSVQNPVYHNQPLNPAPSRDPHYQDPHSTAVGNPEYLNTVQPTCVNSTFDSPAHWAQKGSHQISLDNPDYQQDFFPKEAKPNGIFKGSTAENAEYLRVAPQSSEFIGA
Outline: (§3)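 IC50s derive from a sigmoidal dose–response fit of CellTiter-Glo signal. The signal was normalised between […]-treated cells and cell-free medium. Ba/F3 mutant-EGFR cells, seeded at 400–800/well depending on the line, had 72 h of exposure to a 10-point, 3-fold compound series.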

[8] = biological target: T6, EGFR exon 20 ASV Ins V769_D770 (Ba/F3 cells) (Homo sapiens, UniProt P00533, INS769ASV); test: Inhibitor activity on EGFR-dependent cell growth (CellTiter-Glo, 72 h), Ba/F3 EGFR exon 20 ASV Ins; conditions: read-out: BaF3 ASV IC50
T6 construct: expressed in transfected cells; host or cells: Ba/F3 (murine pro-B cells), retroviral transduction, puromycin selection, IL3-independent pool
T6 sequence (P00533 with tags, fused parts or gaps INS769ASV): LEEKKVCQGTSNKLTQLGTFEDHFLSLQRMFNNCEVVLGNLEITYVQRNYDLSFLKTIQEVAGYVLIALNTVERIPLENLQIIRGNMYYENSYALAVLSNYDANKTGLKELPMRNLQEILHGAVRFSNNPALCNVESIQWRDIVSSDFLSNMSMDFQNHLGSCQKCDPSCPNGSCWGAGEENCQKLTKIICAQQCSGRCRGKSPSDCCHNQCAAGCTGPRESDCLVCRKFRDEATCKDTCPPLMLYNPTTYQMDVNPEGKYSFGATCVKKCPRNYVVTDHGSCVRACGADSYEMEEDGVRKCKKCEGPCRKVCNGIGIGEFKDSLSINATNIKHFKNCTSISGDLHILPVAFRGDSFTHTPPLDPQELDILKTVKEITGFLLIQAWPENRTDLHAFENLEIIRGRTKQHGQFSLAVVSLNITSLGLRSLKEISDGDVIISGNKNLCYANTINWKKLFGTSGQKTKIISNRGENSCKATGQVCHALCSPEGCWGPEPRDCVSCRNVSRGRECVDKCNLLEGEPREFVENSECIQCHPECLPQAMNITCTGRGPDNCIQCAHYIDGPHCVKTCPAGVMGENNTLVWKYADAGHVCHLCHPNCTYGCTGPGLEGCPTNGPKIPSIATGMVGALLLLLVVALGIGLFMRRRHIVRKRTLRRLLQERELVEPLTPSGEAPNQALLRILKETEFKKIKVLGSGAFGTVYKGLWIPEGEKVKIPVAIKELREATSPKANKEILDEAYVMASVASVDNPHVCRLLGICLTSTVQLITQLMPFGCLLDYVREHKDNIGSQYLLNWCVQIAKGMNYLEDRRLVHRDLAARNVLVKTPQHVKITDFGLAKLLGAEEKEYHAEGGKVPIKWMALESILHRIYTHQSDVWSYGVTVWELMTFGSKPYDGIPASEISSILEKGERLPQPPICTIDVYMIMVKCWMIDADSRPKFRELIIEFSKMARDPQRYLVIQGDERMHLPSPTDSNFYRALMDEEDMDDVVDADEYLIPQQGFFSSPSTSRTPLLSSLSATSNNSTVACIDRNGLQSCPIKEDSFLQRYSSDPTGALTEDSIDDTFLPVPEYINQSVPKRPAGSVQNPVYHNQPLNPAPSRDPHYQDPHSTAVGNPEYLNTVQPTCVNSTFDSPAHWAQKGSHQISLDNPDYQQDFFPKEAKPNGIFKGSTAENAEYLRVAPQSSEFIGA
Outline: as §3

[9] = biological target: T7, EGFR exon 20 SVD Ins D770_N771 (Ba/F3 cells) (Homo sapiens, UniProt P00533, INS770SVD); test: Inhibitor activity on EGFR-dependent cell growth (CellTiter-Glo, 72 h), Ba/F3 EGFR exon 20 SVD Ins; conditions: read-out: BaF3 SVD IC50
T7 construct: expressed in transfected cells; host or cells: Ba/F3 (murine pro-B cells), retroviral transduction, puromycin selection, IL3-independent pool
Outline: as §3

[10] = biological target: T8, EGFR exon 20 FQEA Ins A763_V764 (Ba/F3 cells) (Homo sapiens, UniProt P00533, INS763FQEA); test: Inhibitor activity on EGFR-dependent cell growth (CellTiter-Glo, 72 h), Ba/F3 EGFR exon 20 FQEA Ins; conditions: read-out: BaF3 FQEA IC50
T8 construct: expressed in transfected cells; host or cells: Ba/F3 (murine pro-B cells), retroviral transduction, puromycin selection, IL3-independent pool
Outline: as §1

[11] = biological target: T5, EGFR exon 20 NPG Ins D770_N771 (Ba/F3 cells); test: Inhibitor activity on EGFR phosphorylation (pEGFR AlphaLISA, 2 h), Ba/F3 EGFR exon 20 NPG Ins
Outline: as §2

[12] = biological target: T6, EGFR exon 20 ASV Ins V769_D770 (Ba/F3 cells); test: Inhibitor activity on EGFR phosphorylation (pEGFR AlphaLISA, 2 h), Ba/F3 EGFR exon 20 ASV Ins; conditions: EGFR phosphorylation, AlphaLISA, 2 hours; read-out: ASV IC50 (pEGFR)
Outline: as §2

[13] = biological target: T7, EGFR exon 20 SVD Ins D770_N771 (Ba/F3 cells); test: Inhibitor activity on EGFR phosphorylation (pEGFR AlphaLISA, 2 h), Ba/F3 EGFR exon 20 SVD Ins
From the text: Example B. Inhibitor Activity on EGFR phosphorylation (pEGFR)
EGFR mutant Ba/F3 cells were generated by transduction with retrovirus containing vectors expressing EGFR L858R, EGFR exon 19del, EGFR L858R/C797S, EGFR exon 20 NPG Ins D770_N771, EGFR exon 20 ASV Ins V769_D770, or EGFR exon 20 SVD Ins D770_N771 genes along with a puromycin selection marker. Transduced cells are selected with puromycin for 7 days and are then be transferred into culture media without Interleukin 3 (IL3). Surviving cells are confirmed to express EGFR by Western blot and maintained as a pool. CUTO14 cells were obtained from Dr. Robert C. Doebele at the University of Colorado. The IC50 date are included in Table 6 and Table 7.
1.1 Cells are harvested from flask into cell culture medium and the cell number counted.
1.2 Cells are diluted with culture medium to the desired density and 40 μL of cell suspension is added into each well of 384-well cell culture plate and the seeding density is 50K cells/well (Ba/F3) or 12.5K cells/well (CUTO14).
2 Compound Preparation and Treatment
2.1 Test compounds are dissolved to 10 mM in a DMSO stock solution. 45 μL of stock solution is transferred to a 384 polypropylene plate (pp-plate). Perform 3-fold, 10-point dilution via transferring 15 μL compound into 30 μL DMSO using a TECAN (EVO200) liquid handler.
2.2 Spin plates at room temperature at 1,000 RPM for 1 minute.
2.3 Transfer 5 nL of diluted compound from compound source plate into the cell plate.
2.4 After compound treatment for 2 hours, perform pEGFR detection by AlphaLISA for compound treatment plates as described in “Detection” section.
3 Detection by pEGFR AlphaLISA (Perkin-Elmer)
3.1 Plates are removed from incubators and equilibrated at room temperature for 10 minutes, and media was removed
3.2 10 μL of lysis buffer is added and plates shaken at 600 rpm for 1 hr.
3.3 Prepare acceptor mix just before use and dispense 5 μL of acceptor mix to all the wells. Shake 350 rpm for Ihr in the dark
3.4 Prepare donor mix under low light conditions prior to use. Dispense 5 μL of donor mix to all the wells. Mix well on the shaker, seal and wrap in aluminum foil and incubate 1.5 hrs at room temperature in the dark
3.5 Transfer 18.5 μL mixture to OptiPlate 384, and read using an Envision. The IC50 date were included in Table 6 and Table 7.

EGFR (CUTO14 cells) = EGFR (CUTO14 cells) (Homo sapiens, UniProt P00533); test: Inhibitor activity on EGFR phosphorylation (pEGFR AlphaLISA, 2 h), CUTO14 cells
Outline: as §2

IC50 (EGFR L858R (Ba/F3 cells) [1]) | IC50 [2] | IC50 [3] | IC50 (EGFR L858R (Ba/F3 cells) [4]) | IC50 [5] | IC50 [6] | IC50 (EGFR WT (Ba/F3 cells)) | IC50 [7] | IC50 [8] | IC50 [9] | IC50 [10] | IC50 [11] | IC50 [12] | IC50 [13] | IC50 (EGFR (CUTO14 cells)) | SMILES
< 100 nM | < 100 nM | < 100 nM | < 100 nM | < 100 nM | < 100 nM | < 100 nM | < 100 nM | < 100 nM | < 100 nM | < 100 nM | < 100 nM | < 100 nM | < 100 nM | < 100 nM | COc1c(F)cccc1Nc1c(-c2ccncc2F)[nH]c2c1C(=O)NCC2C[C@@H]1COCCO1 (single isomer, unassigned) [Compound 566]
< 100 nM | < 100 nM | < 100 nM | < 100 nM | < 100 nM | < 100 nM | 100 to 1000 nM | < 100 nM | < 100 nM | < 100 nM | < 100 nM | < 100 nM | < 100 nM | < 100 nM | < 100 nM | COc1c(F)cccc1Nc1c(-c2ccncc2F)[nH]c2c1C(=O)NC[C@@H]2CC1COCCO1 (stereo in doubt) [Compound 525, (7S)-7-[(2R)-1,4-dioxan-2-ylmethyl]-3-[(3-fluoro-2-methoxyphenyl)amino]-2-(3-fluoropyridin-4-yl)-1H,5H,6H,7H-pyrrolo[3,2-c]pyridin-4-one]
< 100 nM | < 100 nM | < 100 nM | < 100 nM | < 100 nM | < 100 nM | 100 to 1000 nM | < 100 nM | < 100 nM | < 100 nM | < 100 nM | < 100 nM | < 100 nM | < 100 nM | < 100 nM | COCC[C@@H]1CNC(=O)c2c1[nH]c(-c1ccncc1F)c2Nc1cccc(F)c1OC [421b]
< 100 nM | < 100 nM | < 100 nM | < 100 nM | < 100 nM | < 100 nM | 100 to 1000 nM | < 100 nM | < 100 nM | < 100 nM | < 100 nM | < 100 nM | < 100 nM | < 100 nM | < 100 nM | COCC[C@@H]1CNC(=O)c2c1[nH]c(-c1ccncn1)c2Nc1cccc(Cl)c1OC [445a]
< 100 nM | < 100 nM | < 100 nM | < 100 nM | < 100 nM | < 100 nM | 100 to 1000 nM | < 100 nM | < 100 nM | < 100 nM | < 100 nM | < 100 nM | < 100 nM | < 100 nM | < 100 nM | COCC[C@H]1CNC(=O)c2c1[nH]c(-c1ccnc(C)n1)c2Nc1cccc(Cl)c1OC [463b]
< 100 nM | < 100 nM | < 100 nM | < 100 nM | < 100 nM | < 100 nM | < 100 nM | < 100 nM |  |  | < 100 nM | < 100 nM | < 100 nM | < 100 nM | < 100 nM | COc1c(Cl)cccc1Nc1c(-c2ccncc2F)[nH]c2c1C(=O)NC[C@@H]2C[C@@H]1COCCO1 [Compound 482, (S)-7-(((R)-1,4-dioxan-2-yl)methyl)-3-((3-chloro-2-methoxyphenyl)amino)-2-(3-fluoropyridin-4-yl)-1,5,6,7-tetrahydro-4H-pyrrolo[3,2-c]pyridin-4-one]
< 100 nM | < 100 nM | < 100 nM | < 100 nM | < 100 nM | < 100 nM | < 100 nM | < 100 nM |  |  | < 100 nM | < 100 nM | < 100 nM | < 100 nM | < 100 nM | COCC[C@H]1CNC(=O)c2c1[nH]c(-c1ccncc1F)c2Nc1cccc(Cl)c1OC [Compound 747]
< 100 nM | < 100 nM | < 100 nM | < 100 nM | < 100 nM | < 100 nM | 100 to 1000 nM | < 100 nM |  |  | < 100 nM | < 100 nM | < 100 nM | < 100 nM | < 100 nM | COc1c(Cl)cccc1Nc1c(-c2ccnc3ccoc23)[nH]c2c1C(=O)NCC2 [compound 750, 3-[(3-chloro-2-methoxyphenyl)amino]-2-[furo[3,2-b]pyridin-7-yl]-1H,5H,6H,7H-pyrrolo[3,2-c]pyridin-4-one]
< 100 nM | < 100 nM | < 100 nM | < 100 nM | < 100 nM | < 100 nM | 100 to 1000 nM | < 100 nM | < 100 nM | < 100 nM | < 100 nM | < 100 nM | < 100 nM | < 100 nM | < 100 nM | COc1c(Cl)cccc1Nc1c(-c2ccncc2F)[nH]c2c1C(=O)NC[C@@]21CCN(CC(F)(F)F)C1 [compound 817]
